Patent US9926293B2, “Multivalent RAS binding compounds” (THE TRUSTEES OF COLUMBIA UNIVERSITY IN THE CITY OF NEW YORK, priority 2014, dated 2018)

What was measured:
HT1080 (NRAS Q61K) = assay: Cell viability assay (384-well, Alamar blue); format: cell-based; conditions: Homo sapiens, HT-1080, 48 h
Procedure: (§1) All cell culture assays were incubated at 37° C., 5% CO2 in media containing Dulbecco's Modified Eagle Medium (DMEM) with 10% fetal bovine serum (FBS) and 1% penicillin-streptomycin (PS). 384-well format for EC50 determination: cells were trypsinized, counted, and seeded into 384-well plates at 1,000 cells/well. After 12-16 hours, compounds (as 50 mM stocks in DMSO) were arrayed in an 8- or 16-point dilution series in 384-well polypropylene plates. Compound solutions were transferred at a 1:5 dilution into the assay plates. After 48 hours, a 50% Alamar blue solution was added to a final concentration of 10% Alamar blue. After 6 hours of incubation, fluorescence intensity was determined using a Victor3 plate reader (Perkin Elmer) with a 535 nm excitation filter and a 590 nm emission filter. All compound measurements were performed in triplicate. For experiments performed in 6-well format, cells were trypsinized, counted, and seeded into 6-well plates at 200,000 cells per well 16 h prior to use. Media was then aspirated and replaced with 2 mL of media containing compounds at the indicated concentrations (from 10 mM stocks in DMSO). After 24 hours, cells were trypsinized and viability was determined using Trypan Blue exclusion assay.

BJeLR (HRAS G12V) = assay: Cell viability assay (384-well, Alamar blue); format: cell-based; conditions: 48 h
Procedure: as §1

MIA Paca-2 (KRAS G12C) = assay: Cell viability assay (384-well, Alamar blue); format: cell-based; conditions: Homo sapiens, MIA PaCa-2, 48 h
Procedure: as §1

Calu-1 (KRAS G12C) = assay: Cell viability assay (384-well, Alamar blue); format: cell-based; conditions: Homo sapiens, Calu-1, 48 h
Procedure: as §1

HPAFII (KRAS G12D) = assay: Cell viability assay (384-well, Alamar blue); format: cell-based; conditions: Homo sapiens, HPAF-II, 48 h
Procedure: as §1

MDA-MB-231 (KRAS G13D) = assay: Cell viability assay (384-well, Alamar blue); format: cell-based; conditions: Homo sapiens, MDA-MB-231, 48 h
Procedure: as §1

BxPC-3 (WT) = assay: Cell viability assay (384-well, Alamar blue); format: cell-based; conditions: Homo sapiens, Table 7, 48 hours, 8-point dilution series
Procedure: as §1

Panc-1 (KRAS G12D) = assay: Cell viability assay (384-well, Alamar blue); format: cell-based; conditions: Homo sapiens, PANC-1, 48 h
Procedure: as §1

U2OS (WT) = assay: Cell viability assay (384-well, Alamar blue); format: cell-based; conditions: Homo sapiens, Table 7, 48 hours, 8-point dilution series
Procedure: as §1

SW480 (KRAS G12V) = assay: Cell viability assay (384-well, Alamar blue); format: cell-based; conditions: Homo sapiens, SW480, 48 h
Procedure: as §1

[1] = test system: phosphorylated ERK in BJeLR (HRAS^G12V); assay: Western blot of phosphorylated ERK; format: cell-based; conditions: 2 μM and 8 μM, 24 hours, serum free
Procedure: FIG. 19A-FIG. 19B show BJeLR cells were treated with DMSO, RAS inhibitor at 2 μM and 8 μM, U0126 at 8 μM, or BEZ-235 at 0.2 μM for 24 hours under serum free conditions. Cells were then lysed and the lysate was subjected to detection of phosphorylated Erk and total Erk by western blotting (FIG. 19A). Three independent experiments yielded essentially equivalent results.
BJeLR cells were seeded in 60 mm dishes at 1 million cells/dish in media containing DMEM and 10% FBS with 1% penicillin and streptomycin (PS), 12-16 hours prior to use. The medium was then aspirated and compounds added as solutions in serum free medium (DMEM with 1% PS) to the dishes and treated for 24 hours or at the indicated time points. Following treatment, the medium was aspirated from each dish and cells were washed twice with PBS. […] Antibodies for pERK1/2, ERK1/2, pAKT ser473, AKT, pan-RAS, RALA, PI3Kgamma (Cell signaling), and RAF-1 (Santa Cruz) were detected using a goat anti-rabbit or goat anti-mouse IgG antibody conjugated to an IRdye at 800CW and 680CW conjugated, respectively (Li-COR biosciences).

[2] = test system: RAS-RAF interaction in BJeLR cells; assay: Cell-based RAS pulldown with CRAF-RBD agarose beads; conditions: 2 μM and 8 μM, 24 hours, serum free
Procedure: FIG. 20A-FIG. 20B show BJeLR cells were treated as described in FIG. 19A-FIG. 19B and the lysate was incubated with CRAF-RBD bound agarose beads. The beads were then washed three times with PBS to remove any unbound RAS and the bound fraction was then denatured and subjected to detection by western blotting using a pan-RAS antibody (FIG. 20A).
BJeLR cells were seeded at one million cells/10 cm dish in 10% FBS and incubated at 37° C. overnight. The medium was then aspirated and replaced with serum free media containing the inhibitors (from 10 mM DMSO stocks). The cells were then incubated for 24 hours at 37° C. The medium was removed, washed with cold PBS, lysed and spun down at 13,000 rpm at 4° C. to remove unlysed cells and debris. The lysate was incubated with Raf-1 RBD agarose beads (EMD millipore) for 2 hours with rotation at 4° C. The solution was then spun down at 1500×g and the supernatant removed. The beads were washed twice with PBS, resuspended in 2.5×SDS, and then analyzed by western blotting procedure.

[3] = Table 7, 8-point dilution series
[4] = Table 8, MDA-MB-231 (KRAS^G13O), 384-well, alamar blue

SMILES | EC50 (HT1080 (NRAS Q61K); [3]) [µM] | EC50 (HT1080 (NRAS Q61K); Table 8, 384-well, alamar blue) [µM] | EC50 (BJeLR (HRAS G12V); [3]) [µM] | EC50 (BJeLR (HRAS G12V); Table 8, 384-well, alamar blue) [µM] | EC50 (MIA Paca-2 (KRAS G12C); [3]) [µM] | EC50 (MIA Paca-2 (KRAS G12C); Table 8, 384-well, alamar blue) [µM] | EC50 (Calu-1 (KRAS G12C); [3]) [µM] | EC50 (Calu-1 (KRAS G12C); Table 8, 384-well, alamar blue) [µM] | EC50 (HPAFII (KRAS G12D); [3]) [µM] | EC50 (HPAFII (KRAS G12D); Table 8, 384-well, alamar blue) [µM] | EC50 (MDA-MB-231 (KRAS G13D); [3]) [µM] | EC50 (MDA-MB-231 (KRAS G13D); [4]) [µM] | EC50 (BxPC-3 (WT)) [µM] | EC50 (Panc-1 (KRAS G12D); [3]) [µM] | EC50 (Panc-1 (KRAS G12D); Table 8, 384-well, alamar blue) [µM] | EC50 (U2OS (WT)) [µM] | EC50 (SW480 (KRAS G12V); [3]) [µM] | EC50 (SW480 (KRAS G12V); Table 8, 384-well, alamar blue) [µM] | pERK abundance [1] | CRAF-RBD-bound RAS [2]
NC1(C(=O)NCCCn2cc(-c3ccc(OC(F)(F)F)cc3)c3cc(CN4CCN(Cc5c(Cl)cccc5Cl)CC4)ccc32)CCNCC1 [Compound 31MEW44, 4-amino-N-(3-(5-((4-(2,6-dichlorobenzyl)piperazin-1-yl)methyl)-3-(4-(trifluoromethoxy)phenyl)-1H-indol-1-yl)propyl)piperidine-4-carboxamide] | 2.47 | 1.1 | 3.95 | 4 | 2.81 | 3.2 | 3.6 | 3.6 | 6.02 | 5.2 | 2.26 | 2.3 | 5.29 | 2.06 | 5.1 | 5.03 | 2.18 | 2.2 | effectively decreased pERK abundance in a dose-dependent manner | dose-dependent decrease in CRAF-RBD-bound RAS
NC1(C(=O)NCCCn2cc(-c3cccc(F)c3)c3c(CN4CCN(CCOc5ccc(Cl)cc5)CC4)cccc32)CCNCC1 [Compound 34MEW43, 4-amino-N-(3-(4-((4-(2-(4-chlorophenoxy)ethyl)piperazin-1-yl)methyl)-3-(3-fluorophenyl)-1H-indol-1-yl)propyl)piperidine-4-carboxamide] | 5.17 | 5.2 | 9.71 | 9.7 | 8.45 | 8.5 | 9.42 | 9.4 | 16.4 | 16 | 5.63 | 5.6 | 13.1 | 5.96 | 6 | 12.3 | 7.06 | 7.1 | effectively decreased pERK abundance in a dose-dependent manner | dose-dependent decrease in CRAF-RBD-bound RAS
